Experimental data taken from the supplement of paper PMC10307832.

Tests used:
Assay in all cases: relative viability (nuclei count vs DMSO), 5 days (fraction); higher = more cells survive
NCI-H1975 = system: NCI-H1975
How it was run: (§1)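 Relative viability is defined as nuclei in treated wells over nuclei in vehicle wells. Duplicate plates were run and medians reported. Lung cancer cell lines in 1536-well plates were dosed by pin tool one day after seeding, with one drug or with a fixed anchor-drug dose plus five library-drug doses (not always all listed) in √10 steps, and nuclei were counted after 5 days.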

HCC-366 = system: HCC-366
How it was run: as §1

SK-LU-1 = system: SK-LU-1
How it was run: as §1

HARA = system: HARA
How it was run: as §1

NCI-H838 = system: NCI-H838
How it was run: as §1

NCI-H520 = system: NCI-H520
How it was run: as §1

LK-2 = system: LK-2
How it was run: as §1

NCI-H1792 = system: NCI-H1792
How it was run: as §1

LOU-NH91 = system: LOU-NH91
How it was run: as §1

NCI-H1650 = system: NCI-H1650
How it was run: as §1

COR-L23 = system: COR-L23
How it was run: as §1

NCI-H1734 = system: NCI-H1734
How it was run: as §1

## C=C1C(=O)O[C@@H](CCCCCCCC)[C@@H]1C(=O)O [C-75] + Nc1ncn([C@H]2C[C@H](O)[C@@H](CO)O2)c(=O)n1 [Decitabine] (partner 2 µM)
NCI-H1975; first compound 0.08 µM
  relative viability: 0.373
NCI-H1975; first compound 0.253 µM
  relative viability: 0.334
NCI-H1975; first compound 0.8 µM
  relative viability: 0.32
NCI-H1975; first compound 2.53 µM
  relative viability: 0.299
NCI-H1975; first compound 8 µM
  relative viability: 0.431
HCC-366; first compound 0.08 µM
  relative viability: 0.357
HCC-366; first compound 0.253 µM
  relative viability: 0.361
HCC-366; first compound 0.8 µM
  relative viability: 0.385
HCC-366; first compound 2.53 µM
  relative viability: 0.344
HCC-366; first compound 8 µM
  relative viability: 0.289
SK-LU-1; first compound 0.08 µM
  relative viability: 0.64
SK-LU-1; first compound 0.253 µM
  relative viability: 0.588
SK-LU-1; first compound 0.8 µM
  relative viability: 0.616
SK-LU-1; first compound 2.53 µM
  relative viability: 0.532
SK-LU-1; first compound 8 µM
  relative viability: 0.467
HARA; first compound 0.08 µM
  relative viability: 0.538
HARA; first compound 0.253 µM
  relative viability: 0.444
HARA; first compound 0.8 µM
  relative viability: 0.565
HARA; first compound 2.53 µM
  relative viability: 0.535
HARA; first compound 8 µM
  relative viability: 0.756
NCI-H838; first compound 0.08 µM
  relative viability: 0.445
NCI-H838; first compound 0.253 µM
  relative viability: 0.45
NCI-H838; first compound 0.8 µM
  relative viability: 0.434
NCI-H838; first compound 2.53 µM
  relative viability: 0.369
NCI-H838; first compound 8 µM
  relative viability: 0.372
NCI-H520; first compound 0.08 µM
  relative viability: 0.488
NCI-H520; first compound 0.253 µM
  relative viability: 0.522
NCI-H520; first compound 0.8 µM
  relative viability: 0.498
NCI-H520; first compound 2.53 µM
  relative viability: 0.456
NCI-H520; first compound 8 µM
  relative viability: 0.356
LK-2; first compound 0.08 µM
  relative viability: 0.309
LK-2; first compound 0.253 µM
  relative viability: 0.374
LK-2; first compound 0.8 µM
  relative viability: 0.306
LK-2; first compound 2.53 µM
  relative viability: 0.232
LK-2; first compound 8 µM
  relative viability: 0.271
NCI-H1792; first compound 0.08 µM
  relative viability: 0.516
NCI-H1792; first compound 0.253 µM
  relative viability: 0.554
NCI-H1792; first compound 0.8 µM
  relative viability: 0.509
NCI-H1792; first compound 2.53 µM
  relative viability: 0.494
NCI-H1792; first compound 8 µM
  relative viability: 0.475
LOU-NH91; first compound 0.08 µM
  relative viability: 0.83
LOU-NH91; first compound 0.253 µM
  relative viability: 0.734
LOU-NH91; first compound 0.8 µM
  relative viability: 0.752
LOU-NH91; first compound 8 µM
  relative viability: 0.792
NCI-H1650; first compound 0.08 µM
  relative viability: 0.362
NCI-H1650; first compound 0.253 µM
  relative viability: 0.384
NCI-H1650; first compound 0.8 µM
  relative viability: 0.453
NCI-H1650; first compound 8 µM
  relative viability: 0.387
COR-L23; first compound 0.08 µM
  relative viability: 0.483
COR-L23; first compound 0.253 µM
  relative viability: 0.486
COR-L23; first compound 0.8 µM
  relative viability: 0.415
COR-L23; first compound 2.53 µM
  relative viability: 0.459
COR-L23; first compound 8 µM
  relative viability: 0.396
NCI-H1734; first compound 0.08 µM
  relative viability: 0.516
NCI-H1734; first compound 0.253 µM
  relative viability: 0.589
NCI-H1734; first compound 0.8 µM
  relative viability: 0.457
